Measured values taken from patent publication US20240279278A1, “NMU RECEPTOR 2 AGONISTS” (Boehringer Ingelheim International GmbH, priority 2023, published 2024).
Residues, ends and D or L forms follow the SMILES beside them.

Assays:
in vivo = assay: in vivo; design: species or system NMRI mice; conditions: male, NMRI, mouse, iv
Protocol: Example 5: Pharmacokinetics Intravenous (iv) PK in Mouse Pharmacokinetic parameters of the test compounds were determined after intravenous administration to Naval Medical Research Institute (NMRI) mice. Male NMRI mice were obtained either from Charles River (Germany) or from Janvier (France) weighing approximately 30 g to 40 g. Mice were housed in standard cages with light cycle of 12-hour dark and 12-hour light. Standardized food and water were offered ad libitum to the animals during the whole experimental period. The respective peptide was dissolved in 50 mM phosphate buffer (pH 7.4) containing 3.5% mannitol. Intravenous doses of 30 nmol/kg were given via a tail vein. Serial blood samples were collected from the vena saphena into tubes containing EDTA as anticoagulant at different time points up to 48 hours post dosing. After centrifugation for approximately 5 minutes, plasma samples were transferred to 96-well Polymerase Chain Reaction (PCR) plates, immediately frozen and kept at approximately −20° C. until analyzed for plasma concentration by liquid chromatography mass spectrometry (LC-MS/MS). Individual plasma concentration-time profiles were analyzed by a non-compartmental approach, and the resulting pharmacokinetic parameters were determined.

[1] = Effect on acute food intake in normal NMRI mice; type: in vivo; conditions: male NMRI mice, single subcutaneous dose 100 nmol/kg, normalized to vehicle group
Protocol: Example 9: Pharmacodynamics Effect on Acute Food Intake in Normal NMRI Mice
Male NMRI mice were obtained from Charles River (Charles River, Research Models & Services Germany GmbH) or from JanVier (JanVier Labs, France) at 3 weeks of age. The animals were group housed 4 mice pr. cage under a 12/12 hours dark-light cycle, light off at 3 pm. Room temperature was controlled to 21° C.±1° C., with 60%±20% humidity. Animals had ad libitum access to regular rodent chow (KLIBA Nafag 3430 or Altromin 1324, Brogaarden, Denmark) and tap water. Animals were transferred at 6 weeks of age, 5-7 days before the start of the study to a real-time food intake monitoring system, HM-2 system (MBRose, Denmark), to allow acclimatization to experimental conditions. As the animals were uniquely identified with microchips, each individual animal was identified by its microchip upon entry and exit from the food channel. Randomization of the mice for each study group (n=8-11) was based on body weight measured the day before the start of the study. A vehicle-treated (50 mM acetate buffer pH 7.4 with 3.5% mannitol) group was included in each experiment. Six hours before the start of the night phase animals were fasted. One hour before the dark phase animals were dosed once subcutaneously with test peptide. Food intake was reported hourly for a period of 24 hours. The food intake of the treated groups was normalized (in %) to the average food intake of the group receiving vehicle (table 10). Statistical significance was evaluated using One-way analysis of variance with Bonferroni's multiple comparison test. P<0.05 was considered statistically significant.

human NMUR2 receptor = human NMUR2 receptor (Homo sapiens, UniProt Q9GZQ4); assay: Radioligand binding competition assay (RLB), human NMUR2 receptor binding (SPA, [125I]-Neuromedin U-25); design: host or cells: CHO-K1; conditions: CHO-K1 hNMUR2 cell membranes, 4 hours at RT
Chain of human NMUR2 receptor (Q9GZQ4 whole entry): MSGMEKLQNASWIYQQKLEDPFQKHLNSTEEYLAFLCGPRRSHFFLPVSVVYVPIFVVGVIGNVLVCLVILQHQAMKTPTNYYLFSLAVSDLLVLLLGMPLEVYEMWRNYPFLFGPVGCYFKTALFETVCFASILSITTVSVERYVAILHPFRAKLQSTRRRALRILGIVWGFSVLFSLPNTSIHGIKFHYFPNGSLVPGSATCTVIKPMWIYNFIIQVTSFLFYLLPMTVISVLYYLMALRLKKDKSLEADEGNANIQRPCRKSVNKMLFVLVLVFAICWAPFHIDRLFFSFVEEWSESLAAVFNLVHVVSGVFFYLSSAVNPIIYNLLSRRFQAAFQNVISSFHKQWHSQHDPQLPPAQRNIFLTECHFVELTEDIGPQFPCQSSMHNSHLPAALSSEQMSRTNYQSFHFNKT

Row | SMILES | MRT (in vivo; 30 nmol/kg) | Acute Food Intake 24 h [1] | Ki (human NMUR2 receptor) | MRT (in vivo)
1 | CCCC[C@H](NC(=O)[C@H](CC(C)C)N(C)C(=O)[C@H](Cc1ccccc1)NC(=O)[C@H](Cc1ccc(O)cc1)NC(=O)CN1CCN(CCNC(=O)CN(C)C(=O)CN(C)C(=O)CN(C)C(=O)CN(C)C(=O)CN(C)C(=O)CN(C)C(=O)CN(C)C(=O)CN(C)C(=O)CN(C)C(=O)CN(C)C(=O)CN(C)C(=O)CN(C)C(=O)CN(C)C(=O)CN(C)C(=O)CN(C)C(=O)CC[C@H](NC(=O)CC[C@H](NC(=O)CC[C@H](NC(=O)CCCCCCCCCCCCCCCCC(=O)O)C(=O)O)C(=O)O)C(=O)O)CC1)C(=O)N[C@@H](CCN)C(=O)N1CCC[C@H]1C(=O)N[C@@H](CCCNC(=N)N)C(=O)NCC(N)=O [Compound 26, C18DA-gGlu3-Sar15-AEPipAc-Tyr-Phe-NMeLeu-Nle-Dbu-Pro-Arg-Gly-NH2] (HELM PEPTIDE1{[O=C(O)CCCCCCCCCCCCCCCCC(=O)[*:2]].[gGlu].[gGlu].[gGlu].[Sar].[Sar].[Sar].[Sar].[Sar].[Sar].[Sar].[Sar].[Sar].[Sar].[Sar].[Sar].[Sar].[Sar].[Sar].[O=C(CN1CCN(CCN[*:1])CC1)[*:2]].Y.F.[meL].[Nle].[Dab].P.R.G.[am]}$$$$V2.0) | 12.4 h | 37% vehicle | 48.1 nM | 
2 | CCCC[C@H](NC(=O)[C@H](CC(C)C)N(C)C(=O)[C@H](Cc1ccccc1)NC(=O)[C@H](Cc1ccc(O)cc1)NC(=O)CN1CCN(CCNC(=O)CN(C)C(=O)CN(C)C(=O)CN(C)C(=O)CN(C)C(=O)CN(C)C(=O)CN(C)C(=O)CN(C)C(=O)CN(C)C(=O)CN(C)C(=O)CN(C)C(=O)CN(C)C(=O)CN(C)C(=O)CN(C)C(=O)CN(C)C(=O)CN(C)C(=O)CC[C@H](NC(=O)CC[C@H](NC(=O)CC[C@H](NC(=O)CCCCCCCCCCCCCCCCC(=O)O)C(=O)O)C(=O)O)C(=O)O)CC1)C(=O)N[C@@H](CCCNC(=N)N)C(=O)N1CCC[C@H]1C(=O)N[C@@H](CCCNC(=N)N)C(=O)NCC(N)=O [Compound 7, C18DA-gGlu3-Sar15-AEPipAc-Tyr-Phe-NMeLeu-Nle-Arg-Pro-Arg-Gly-NH2] (HELM PEPTIDE1{[O=C(O)CCCCCCCCCCCCCCCCC(=O)[*:2]].[gGlu].[gGlu].[gGlu].[Sar].[Sar].[Sar].[Sar].[Sar].[Sar].[Sar].[Sar].[Sar].[Sar].[Sar].[Sar].[Sar].[Sar].[Sar].[O=C(CN1CCN(CCN[*:1])CC1)[*:2]].Y.F.[meL].[Nle].R.P.R.G.[am]}$$$$V2.0) | 17.4 h | 46% vehicle | 22.8 nM | 17.4 h
3 | CCCC[C@H](NC(=O)[C@H](CC(C)C)N(C)C(=O)[C@H](Cc1ccccc1)NC(=O)[C@H](Cc1ccc(O)cc1)NC(=O)CN1CCN(CCNC(=O)CN(C)C(=O)CN(C)C(=O)CN(C)C(=O)CN(C)C(=O)CN(C)C(=O)CN(C)C(=O)CN(C)C(=O)CN(C)C(=O)CN(C)C(=O)CN(C)C(=O)CN(C)C(=O)CN(C)C(=O)CN(C)C(=O)CN(C)C(=O)CN(C)C(=O)CC[C@H](NC(=O)CC[C@H](NC(=O)CC[C@H](NC(=O)CCCCCCCCCCCCCCCCCCC(=O)O)C(=O)O)C(=O)O)C(=O)O)CC1)C(=O)N[C@@H](CCN)C(=O)N(C)[C@@H](C)C(=O)N[C@@H](CCCNC(=N)N)C(=O)NCC(N)=O [Compound 43, C20DA-gGlu3-Sar15-AEPipAc-Tyr-Phe-NMeLeu-Nle-Dbu-NMeAla-Arg-Gly-NH2] (HELM PEPTIDE1{[O=C(O)CCCCCCCCCCCCCCCCCCC(=O)[*:2]].[gGlu].[gGlu].[gGlu].[Sar].[Sar].[Sar].[Sar].[Sar].[Sar].[Sar].[Sar].[Sar].[Sar].[Sar].[Sar].[Sar].[Sar].[Sar].[O=C(CN1CCN(CCN[*:1])CC1)[*:2]].Y.F.[meL].[Nle].[Dab].[meA].R.G.[am]}$$$$V2.0) | 37.7 h | 28% vehicle | 32.6 nM | 
